Experimental data from ChEMBL document CHEMBL5303573, “Mapping human microbiome drug metabolism by gut bacteria and their genes” (Nature, 2019).

Columns and labels:
[1] = The drug is tested on Escherichia coli strain: BW25113 for biotransformation. The drug concentrations were measured before and after a 12-h incubation by liquid-chromatography-coupled mass spectrometry (LC–MS); settings: 2 µM
[2] = The drug is tested on Bifidobacterium breve strain: DSM20213 for biotransformation. The drug concentrations were measured before and after a 12-h incubation by liquid-chromatography-coupled mass spectrometry (LC–MS); settings: 2 µM
[3] = The drug is tested on Bacteroides finegoldii strain: DSM17565 for biotransformation. The drug concentrations were measured before and after a 12-h incubation by liquid-chromatography-coupled mass spectrometry (LC–MS); settings: 2 µM
[4] = The drug is tested on Clostridium asparagiforme strain: DSM15981 for biotransformation. The drug concentrations were measured before and after a 12-h incubation by liquid-chromatography-coupled mass spectrometry (LC–MS); format: ADME; parameters: dose 2 uM, timepoint 0 vs 12 hours; settings: enterocloster asparagiformis, 2 µM
[5] = bacteroides fragilis, 12 h, 2 µM
Description: The drug is tested on Bacteroides fragilis strain: 3397 (T10) for biotransformation. The drug concentrations were measured before and after a 12-h incubation by liquid-chromatography-coupled mass spectrometry (LC–MS)

[6] = The drug is tested on Subdoligranulum variabile strain: DSM15176 for biotransformation. The drug concentrations were measured before and after a 12-h incubation by liquid-chromatography-coupled mass spectrometry (LC–MS); settings: 2 µM
[7] = parabacteroides distasonis, 12 h, 2 µM
Description: The drug is tested on Parabacteroides distasonis strain: ATCC8503 for biotransformation. The drug concentrations were measured before and after a 12-h incubation by liquid-chromatography-coupled mass spectrometry (LC–MS)

[8] = The drug is tested on Eubacterium rectale strain: ATCC33656 for biotransformation. The drug concentrations were measured before and after a 12-h incubation by liquid-chromatography-coupled mass spectrometry (LC–MS); settings: agathobacter rectalis, 2 µM
[9] = The drug is tested on Bifidobacterium longum subsp. Infantis strain: CCUG52486 for biotransformation. The drug concentrations were measured before and after a 12-h incubation by liquid-chromatography-coupled mass spectrometry (LC–MS); settings: 2 µM
[10] = The drug is tested on Dorea formicigenerans strain: ATCC27755 for biotransformation. The drug concentrations were measured before and after a 12-h incubation by liquid-chromatography-coupled mass spectrometry (LC–MS); settings: 2 µM
[11] = The drug is tested on Collinsella aerofaciens strain: ATCC25986 for biotransformation. The drug concentrations were measured before and after a 12-h incubation by liquid-chromatography-coupled mass spectrometry (LC–MS); settings: 2 µM
[12] = The drug is tested on Anaerococcus hydrogenalis strain: DSM7454 for biotransformation. The drug concentrations were measured before and after a 12-h incubation by liquid-chromatography-coupled mass spectrometry (LC–MS); settings: 2 µM
[13] = The drug is tested on Bacteroides uniformis strain: ATCC8492 for biotransformation. The drug concentrations were measured before and after a 12-h incubation by liquid-chromatography-coupled mass spectrometry (LC–MS); settings: 2 µM
[14] = The drug is tested on Bacteroides fragilis strain: HMW615 for biotransformation. The drug concentrations were measured before and after a 12-h incubation by liquid-chromatography-coupled mass spectrometry (LC–MS); settings: 2 µM
[15] = The drug is tested on Bacteroides dorei strain: DSM17855 for biotransformation. The drug concentrations were measured before and after a 12-h incubation by liquid-chromatography-coupled mass spectrometry (LC–MS); settings: phocaeicola dorei, 2 µM
[16] = The drug is tested on Providencia stuartii strain: ATCC25827 for biotransformation. The drug concentrations were measured before and after a 12-h incubation by liquid-chromatography-coupled mass spectrometry (LC–MS); settings: 2 µM
[17] = The drug is tested on Eubacterium hallii strain: DSM3353 for biotransformation. The drug concentrations were measured before and after a 12-h incubation by liquid-chromatography-coupled mass spectrometry (LC–MS); settings: anaerobutyricum hallii, 2 µM
[18] = The drug is tested on Bacteroides fragilis strain: HMW610 for biotransformation. The drug concentrations were measured before and after a 12-h incubation by liquid-chromatography-coupled mass spectrometry (LC–MS); settings: 2 µM
[19] = The drug is tested on Coprococcus comes strain: ATCC27758 for biotransformation. The drug concentrations were measured before and after a 12-h incubation by liquid-chromatography-coupled mass spectrometry (LC–MS); format: ADME; parameters: dose 2 uM, timepoint 0 vs 12 hours; settings: 2 µM
[20] = The drug is tested on Anaerotruncus colihominis strain: DSM17241 for biotransformation. The drug concentrations were measured before and after a 12-h incubation by liquid-chromatography-coupled mass spectrometry (LC–MS); settings: 2 µM

| SMILES | Bacterial Biotransformation [1] | Bacterial Biotransformation [2] | Bacterial Biotransformation [3] | Bacterial Biotransformation [4] | Bacterial Biotransformation [5] | Bacterial Biotransformation [6] | Bacterial Biotransformation [7] | Bacterial Biotransformation [8] | Bacterial Biotransformation [9] | Bacterial Biotransformation [10] | Bacterial Biotransformation [11] | Bacterial Biotransformation [12] | Bacterial Biotransformation [13] | Bacterial Biotransformation [14] | Bacterial Biotransformation [15] | Bacterial Biotransformation [16] | Bacterial Biotransformation [17] | Bacterial Biotransformation [18] | Bacterial Biotransformation [19] | Bacterial Biotransformation [20] |
| --- | --- | --- | --- | --- | --- | --- | --- | --- | --- | --- | --- | --- | --- | --- | --- | --- | --- | --- | --- | --- |
| COc1ccc2[nH]c([S+]([O-])Cc3ncc(C)c(OC)c3C)nc2n1 (stereo not drawn) [TENATOPRAZOLE] | Compound metabolized | Compound metabolized | Compound metabolized | Compound metabolized | Compound metabolized | Compound metabolized | Compound metabolized | Compound metabolized | Compound metabolized | Compound metabolized | Compound metabolized | Compound metabolized | Compound metabolized | Compound metabolized | Compound metabolized | Compound metabolized | Compound metabolized | Compound metabolized | Compound metabolized |  |
| CCOC(=O)C1=C(C)NC(C)=C(C(=O)OC)C1c1cccc([N+](=O)[O-])c1 (stereo not drawn) [NITRENDIPINE] | Compound metabolized | Compound metabolized | Compound metabolized | Compound metabolized | Compound metabolized | Compound metabolized | Compound metabolized | Compound metabolized | Compound metabolized | Compound metabolized | Compound metabolized | Compound metabolized | Compound metabolized | Compound metabolized | Compound metabolized | Compound NOT metabolized | Compound metabolized | Compound metabolized | Compound metabolized | Compound metabolized |
| CC[C@@H](CO)NC(=O)[C@@H]1C=C2c3cccc4c3c(cn4C)C[C@H]2N(C)C1.O=C(O)/C=C\C(=O)O [METHYSERGIDE MALEATE] | Compound metabolized | Compound metabolized | Compound metabolized | Compound metabolized | Compound metabolized | Compound metabolized | Compound metabolized | Compound metabolized | Compound metabolized | Compound metabolized | Compound metabolized | Compound metabolized | Compound metabolized | Compound NOT metabolized | Compound metabolized | Compound metabolized | Compound metabolized | Compound NOT metabolized | Compound metabolized | Compound metabolized |
| CNC(=C[N+](=O)[O-])NCCSCc1csc(CN(C)C)n1 [NIZATIDINE] | Compound NOT metabolized | Compound metabolized | Compound metabolized | Compound metabolized | Compound NOT metabolized | Compound metabolized | Compound metabolized | Compound metabolized | Compound metabolized | Compound metabolized | Compound metabolized | Compound metabolized | Compound NOT metabolized | Compound metabolized | Compound metabolized | Compound metabolized | Compound metabolized | Compound metabolized | Compound NOT metabolized | Compound metabolized |
| CN1CCc2cccc3c2[C@H]1Cc1ccc(O)c(O)c1-3 [APOMORPHINE] | Compound NOT metabolized | Compound NOT metabolized | Compound NOT metabolized | Compound NOT metabolized | Compound NOT metabolized | Compound NOT metabolized | Compound NOT metabolized | Compound NOT metabolized | Compound NOT metabolized | Compound NOT metabolized | Compound NOT metabolized | Compound NOT metabolized | Compound NOT metabolized | Compound NOT metabolized | Compound NOT metabolized | Compound NOT metabolized | Compound NOT metabolized | Compound NOT metabolized | Compound NOT metabolized | Compound NOT metabolized |
| CC#C[C@]1(O)CC[C@H]2[C@@H]3CCC4=CC(=O)CCC4=C3[C@@H](c3ccc(N(C)C)cc3)C[C@@]21C [MIFEPRISTONE] | Compound NOT metabolized | Compound metabolized | Compound NOT metabolized | Compound NOT metabolized | Compound NOT metabolized | Compound NOT metabolized | Compound NOT metabolized | Compound NOT metabolized | Compound NOT metabolized | Compound NOT metabolized | Compound NOT metabolized | Compound NOT metabolized | Compound NOT metabolized | Compound NOT metabolized | Compound metabolized | Compound NOT metabolized | Compound NOT metabolized | Compound metabolized | Compound NOT metabolized | Compound NOT metabolized |
| COc1ccnc(C[S+]([O-])c2nc3ccc(OC(F)F)cc3[nH]2)c1OC (stereo not drawn) [PANTOPRAZOLE] | Compound metabolized | Compound metabolized | Compound metabolized | Compound metabolized | Compound metabolized | Compound metabolized | Compound metabolized | Compound metabolized | Compound metabolized | Compound metabolized | Compound metabolized | Compound metabolized | Compound metabolized | Compound metabolized | Compound metabolized | Compound metabolized | Compound metabolized | Compound metabolized | Compound metabolized | Compound metabolized |
| CCOC(=O)[C@H](CCc1ccccc1)N[C@H]1CCc2ccccc2N(CC(=O)O)C1=O [BENAZEPRIL] | Compound NOT metabolized | Compound NOT metabolized | Compound metabolized | Compound metabolized | Compound metabolized | Compound NOT metabolized | Compound metabolized | Compound NOT metabolized |  | Compound NOT metabolized | Compound metabolized | Compound NOT metabolized | Compound metabolized | Compound metabolized | Compound metabolized | Compound NOT metabolized | Compound NOT metabolized | Compound metabolized | Compound NOT metabolized | Compound NOT metabolized |
